According to patent publication US8299048B2, “Hexahydrocyclopentyl[f]indazole sulfonamides and derivatives thereof as selective glucocorticoid receptor modulators” (Merck Sharp & Dohme Corp., priority 2008, dated 2012):
Where two headings read alike, the source gives them in different places.

Molecular target: T1, human GR (Homo sapiens, UniProt P04150)
T1 sequence (P04150 1-777): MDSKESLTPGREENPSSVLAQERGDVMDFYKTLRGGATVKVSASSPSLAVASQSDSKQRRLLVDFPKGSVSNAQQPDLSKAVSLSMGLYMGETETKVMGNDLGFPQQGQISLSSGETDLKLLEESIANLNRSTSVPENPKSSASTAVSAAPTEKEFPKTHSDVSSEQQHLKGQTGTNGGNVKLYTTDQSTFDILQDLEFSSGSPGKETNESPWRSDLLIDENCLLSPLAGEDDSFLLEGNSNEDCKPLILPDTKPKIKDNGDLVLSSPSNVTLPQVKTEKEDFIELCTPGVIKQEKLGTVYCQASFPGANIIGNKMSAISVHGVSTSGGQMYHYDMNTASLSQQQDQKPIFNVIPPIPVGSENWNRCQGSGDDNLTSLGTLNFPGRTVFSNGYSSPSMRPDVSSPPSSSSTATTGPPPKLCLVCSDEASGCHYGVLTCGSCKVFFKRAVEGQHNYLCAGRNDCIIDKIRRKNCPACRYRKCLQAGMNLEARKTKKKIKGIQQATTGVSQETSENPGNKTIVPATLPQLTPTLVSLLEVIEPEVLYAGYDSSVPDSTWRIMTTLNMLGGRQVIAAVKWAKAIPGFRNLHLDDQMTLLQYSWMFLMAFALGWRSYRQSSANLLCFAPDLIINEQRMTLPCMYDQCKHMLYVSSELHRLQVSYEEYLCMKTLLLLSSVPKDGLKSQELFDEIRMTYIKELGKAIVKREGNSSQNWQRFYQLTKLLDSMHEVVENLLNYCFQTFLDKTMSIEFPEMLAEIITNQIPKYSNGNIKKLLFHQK
Experiment: Transrepression Assay (GITAR), TNFα-β-lactamase reporter in U937 cells
Format: cell-based
Design: U937 cells contain an endogenous glucocorticoid receptor (GR); endogenous in cells; host or cells: U937 cells stably transfected with the TNF-alpha promoter/beta-lactamase reporter
Details: for GITAR > GRAMM % SEP: GITAR Emax minus GRAMMER Emax; for EC50: U937 cells, inflection point, read-out: Transrepression U937 Cells GITAR IP
Outline: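 First, U937 reporter cells (TNF-α promoter–β-lactamase, native GR) received compound for 30–45 min at 37 °C. Next, PMA (5 ng/ml) and LPS (100 ng/ml) final were added for about 18 hr. Finally, CCF2-AM loading gave the read-out, with 100 nM dexamethasone as 100%.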

[1] = U-937, U937 cells, maximum activity, read-out: Transrepression U937 Cells GITAR Emax
[2] = U-937, activity repressed by 100 nM dexamethasone alone set as 100%, read-out: maximal activity in the transrepression (GITAR) assay

SMILES	GITAR > GRAMM % SEP	EC50	Emax [1]	Emax [2]
Cn1cc(S(=O)(=O)N(CC#N)C[C@H]2CCC3=Cc4c(cnn4-c4ccc(F)cc4)C[C@@]32C)c(C(F)(F)F)n1 [Example 32, N-(cyanomethyl)-N-{[(4αR,5S)-1-(4-fluorophenyl}-4α-methyl-1,4,4α,5,6,7-hexahydrocyclopenta[f]indazol-5-yl]methyl}-1-methyl-3-(trifluoromethyl)-1H-pyrazole-4-sulfonamide]	33.7%	555 nM	63.1%	> 5%
Cc1cc(S(=O)(=O)N(CC#N)C[C@H]2CCC3=Cc4c(cnn4-c4ccc(F)cc4)C[C@@]32C)c(C)o1 [Example 33, (4αR,5S)-5-({(cyanomethyl)[(2,5-dimethyl-3-furyl)sulfonyl]amino}methyl)-1-(4-fluorophenyl)-4α-methyl-1,4,4α,5,6,7-hexahydrocyclopenta[f]indazol-2-ium]	44.5%	1200 nM	59.7%	> 5%
COC(=O)c1sccc1S(=O)(=O)N(CC#N)C[C@H]1CCC2=Cc3c(cnn3-c3ccc(F)cc3)C[C@@]21C [Example 34, methyl 3-[((cyanomethyl){[(4αR,5S)-1-(4-fluorophenyl)-4α-methyl-1,4,4α,5,6,7-hexahydrocyclopenta[f]indazol-5-yl]methyl}amino)sulfonyl]thiophene-2-carboxylate]	8.9%	1780 nM	45.9%	> 5%
Cn1nc(C(F)(F)F)cc1-c1ccc(S(=O)(=O)N(CC#N)C[C@H]2CCC3=Cc4c(cnn4-c4ccc(F)cc4)C[C@@]32C)s1 [Example 35]	34.6%	777 nM	39.5%	> 5%
C[C@]12Cc3cnn(-c4ccc(F)cc4)c3C=C1CC[C@@H]2CN(CC#N)S(=O)(=O)c1cccc(C#N)c1 [Example 36, 3-cyano-N-(cyanomethyl)-N-{[(4αR,5S)-1-(4-fluorophenyl)-4α-methyl-1,4,4α,5,6,7-hexahydrocyclopenta[f]indazol-5-yl]methyl}benzenesulfonamide]	49.5%	540 nM	72.2%	> 5%
Cn1cnc(S(=O)(=O)N(CC#N)C[C@H]2CCC3=Cc4c(cnn4-c4ccc(F)cc4)C[C@@]32C)c1 [Example 37, N-(cyanomethyl)-N-{[(4αR,5S)-1-(4-fluorophenyl}-4α-methyl-1,4,4α,5,6,7-hexahydrocyclopenta[f]indazol-5-yl]methyl}-1-methyl-1H-imidazole-4-sulfonamide]	30.9%	1350 nM	33.8%	> 5%
C[C@]12Cc3cnn(-c4ccc(F)cc4)c3C=C1CC[C@@H]2CN(CC#N)S(=O)(=O)c1ccc(Oc2cccc(Cl)c2C#N)cc1 [Example 38, 4-(3-chloro-2-cyanophenoxy)-N-(cyanomethyl)-N-{[(4αR,5S)-1-(4-fluorophenyl)-4α-methyl-1,4,4α,5,6,7-hexahydrocyclopenta[f]indazol-5-yl]methyl}benzenesulfonamide]	32.5%	2340 nM	33.8%	> 5%
CN1CCOc2cc(S(=O)(=O)N(CC#N)C[C@H]3CCC4=Cc5c(cnn5-c5ccc(F)cc5)C[C@@]43C)ccc21 [Example 39, N-(cyanomethyl)-N-{[(4αR,5S)-1-(4-fluorophenyl)-4α-methyl-1,4,4α,5,6,7-hexahydrocyclopenta[f]indazol-5-yl]methyl}-4-methyl-3,4-dihydro-2H-1,4-benzoxazine-7-sulfonamide]	15.5%	34.9 nM	17.1%	> 5%
C[C@]12Cc3cnn(-c4ccc(F)cc4)c3C=C1CC[C@@H]2CN(CC#N)S(=O)(=O)c1cccc2ccccc12 [Example 40, N-(cyanomethyl)-N-{[(4αR,5S)-1-(4-fluorophenyl)-4α-methyl-1,4,4α,5,6,7-hexahydrocyclopenta[f]indazol-5-yl]methyl}naphthalene-1-sulfonamide]	16.6%	35.5 nM	19.8%	> 5%
C[C@]12Cc3cnn(-c4ccc(F)cc4)c3C=C1CC[C@@H]2CN(CC#N)S(=O)(=O)c1cc(OCC(F)(F)F)ccc1OCC(F)(F)F [Example 41, N-(cyanomethyl)-N-{[(4αR,5S)-1-(4-fluorophenyl)-4α-methyl-1,4,4α,5,6,7-hexahydrocyclopenta[f]indazol-5-yl]methyl}-2,5-bis(2,2,2-trifluoroethoxy)benzenesulfonamide]	31.6%	362 nM	91.9%	> 5%
C[C@]12Cc3cnn(-c4ccc(F)cc4)c3C=C1CC[C@@H]2CN(CC#N)S(=O)(=O)c1ccc(-c2ccccc2)cc1 [Example 42, N-(cyanomethyl)-N-{[(4αR,5S)-1-(4-fluorophenyl)-4α-methyl-1,4,4α,5,6,7-hexahydrocyclopenta[f]indazol-5-yl]methyl}biphenyl-4-sulfonamide]	15.1%	391 nM	19.2%	> 5%
C[C@]12Cc3cnn(-c4ccc(F)cc4)c3C=C1CC[C@@H]2CN(CC#N)S(=O)(=O)c1ccccc1F [Example 43, N-(cyanomethyl)-2-fluoro-N-{[(4αR,5S)-1-(4-fluorophenyl)-4α-methyl-1,4,4α,5,6,7-hexahydrocyclopenta[f]indazol-5-yl]methyl}benzenesulfonamide]	35.8%	1100 nM	71.8%	> 5%
C[C@]12Cc3cnn(-c4ccc(F)cc4)c3C=C1CC[C@@H]2CN(CC#N)S(=O)(=O)c1cc(F)cc(F)c1 [Example 44, N-(cyanomethyl)-3,5-difluoro-N-{[(4αR,5S)-1-(4-fluorophenyl)-4α-methyl-1,4,4α,5,6,7-hexahydrocyclopenta[f]indazol-5-yl]methyl}benzenesulfonamide]	20.8%	1050 nM	65.6%	> 5%
C[C@]12Cc3cnn(-c4ccc(F)cc4)c3C=C1CC[C@@H]2CN(CC#N)S(=O)(=O)c1ccc(Oc2ccccn2)cc1 [Example 45, N-(cyanomethyl)-N-{[(4αR,5S)-1-(4-fluorophenyl)-4α-methyl-1,4,4α,5,6,7-hexahydrocyclopenta[f]indazol-5-yl]methyl}-4-(pyridin-2-yloxy)benzenesulfonamide]	1.3%	1390 nM	12.8%	> 5%
C[C@]12Cc3cnn(-c4ccc(F)cc4)c3C=C1CC[C@@H]2CN(CC#N)S(=O)(=O)c1ccc(F)cc1 [Example 46, N-(cyanomethyl)-4-fluoro-N-{[(4αR,5S)-1-(4-fluorophenyl)-4α-methyl-1,4,4α,5,6,7-hexahydrocyclopenta[f]indazol-5-yl]methyl}benzenesulfonamide]	2.1%	187 nM	85.5%	> 5%
C[C@]12Cc3cnn(-c4ccc(F)cc4)c3C=C1CC[C@@H]2CN(CC#N)S(=O)(=O)c1cc(F)c(F)cc1F [Example 47, N-(cyanomethyl)-2,4,5-trifluoro-N-{[(4αR,5S)-1-(4-fluorophenyl)-4α-methyl-1,4,4α,5,6,7-hexahydrocyclopenta[f]indazol-5-yl]methyl}benzenesulfonamide]	15.7%	895 nM	74%	> 5%
C[C@]12Cc3cnn(-c4ccc(F)cc4)c3C=C1CC[C@@H]2CN(CC#N)S(=O)(=O)Cc1ccccc1 [Example 48, N-(cyanomethyl)-N-{[(4αR,5S)-1-(4-fluorophenyl)-4α-methyl-1,4,4α,5,6,7-hexahydrocyclopenta[f]indazol-5-yl]methyl}-1-phenylmethanesulfonamide]	15.7%	175 nM	24.5%	> 5%
Cc1ccccc1S(=O)(=O)N(CC#N)C[C@H]1CCC2=Cc3c(cnn3-c3ccc(F)cc3)C[C@@]21C [Example 49, N-(cyanomethyl)-N-{[(4αR,5S)-1-(4-fluorophenyl)-4α-methyl-1,4,4α,5,6,7-hexahydrocyclopenta[f]indazol-5-yl]methyl}-2-methylbenzenesulfonamide]	8.9%	922 nM	23%	> 5%
